Reference: patent US9750805B2, “Calcium flux agonists and methods therefor” (Nant Holdings IP, LLC, priority 2012, dated 2017)

Legend:
Format in all cases: cell-based, human
[1] = system: TLR (TLR2, TLR4, TLR5, TLR9) and NOD (NOD1, NOD2) family members; assay: IL-8 production with TLR and NOD ligands plus suboptimal calcium flux agonist (FIGS. 3A-3E); details: suboptimal doses: 20 nM thapsigargin, 316 nM A23187, 1 μM ionomycin, 10 μM cyclopiazonic acid, 31.6 μM DBHQ
Description: To investigate if that observation was also true for other pattern recognition receptors, and especially for TLR and NOD receptors and other ligands, the inventors tested numerous TLR and NOD receptors and various ligands.
The doses used in this experiment were 20 nM for thapsigargin, 316 nM for A23187, 1 μM for ionomycin, 10 μM for cyclopiazonic acid, and 31.6 μM for DBHQ.
Thus, a clear pattern of adjuvant activity of calcium flux agonists on the immune response, and especially on IL-8 production and NF-κB signaling is evident where the immune response is associated with a TLR- or NOD-mediated event.

[2] = system: NF-κB THP-1 cells; assay: NF-κB luciferase reporter synergy with TLR2 ligand and effect of Ca2+ modulating compounds (FIG. 4); details: FIG. 4; calcium flux agonist plus TLR ligand
Description: For example, human promonocytic THP-1 cells were incubated in the presence or absence of a suboptimal dose of the TLR2 ligand Pam2CSK4 and compared to similarly treated cells which also received suboptimal doses of ionophore (here: A23187 and ionomycin). […] In another example, NF-κB THP-1 cells (a THP-1-derived transfectant line harboring an NF-κB-driven luciferase expression cassette) were cultivated in the presence or absence of a suboptimal dose of the TLR2 ligand Pam2CSK4 and compared to similarly treated cells that also received suboptimal doses of various SERCA inhibitors.
The inventors further investigated if the nature of calcium flux was of significance as increased intracellular calcium may have different origins. To that effect, the inventors used various calcium signaling modulators to investigate the nature of the calcium flux and contribution. As can be readily taken from the data shown, extracellular calcium flux into the cell was critical for synergistic amplification of calcium signaling. More specifically, FIG. 4 illustrates the effects of different Ca^2+ modulating compounds on synergy with respect to NF-κB activation.

[3] = system: κB-LUC THP-1 reporter cells; assay: κB-LUC THP-1 reporter response to S. aureus conditioned/spent media (FIGS. 5B-5E)
From the text: Briefly, a culture of logarithmically dividing S. aureus was washed three times with RPMI 1640 (Cellgro). Concurrently, THP-1 κB-LUC THP-1's (THP-1 cells containing the stable integration of a NF-κB luciferase reporter gene) cultured in RPMI 1640 (Cellgro) supplemented with 10% FBS (Thermo HyClone, Waltham Mass.) and 1% penicillin-streptomycin-fungizone (Thermo HyClone) were washed three times with RPMI 1640 (Cellgro) and transferred to the bottom compartment of a 24-well 0.4 μm cutoff transwell plate (Corning) at a concentration of 1.2 million/mL. Dilutions of the washed S. aureus culture were then added to the top chamber of the transwell system at the indicated initial multiplicities of infection (MOI). The cells were incubated for 18 hours at 37° C. at which time aliquots of 60,000 cells were transferred to wells in a 384-well white bottom plate (Thermo). To evaluate luciferase gene expression, Bright-Glo Luciferase Assay Reagent (Promega) was added to each well and the plates were analyzed for luciferase activity using the Perkin Elmer TopCount NXT system (Perkin Elmer).
To determine whether the recognition of S. aureus-produced products could be further augmented through modulation of calcium flux, κB-LUC THP-1 reporter cells were incubated in the presence of a 1:100 dilution (V/V) of sterile filtered S. aureus conditioned (i.e. spent) or unused sterile media and treated with a suboptimal dose (20 nM) of thapsigargin or dimethyl sulfoxide (DMSO) vehicle control as described above. Briefly, conditioned media was produced by culturing S. aureus in RPMI with 10% fetal bovine serum overnight in a shaking incubator at 37° C. following which the bacteria were pelleted by centrifugation and the supernatants filter-sterilized using a 0.2 μm filter (VWR Radnor PA). The κB-LUC THP-1 cells were incubated in the presence of the conditioned/spent media for 18 hours prior to luciferase assay as described above.

| SMILES | effect on IL-8 production with TLR and NOD ligands [1] | effect of Ca2+ modulating compound on synergy with respect to NF-κB activation [2] | effect on calcium flux-induced synergy [3] |
| --- | --- | --- | --- |
| CC(C)(C)c1cc(O)c(C(C)(C)C)cc1O [DBHQ, 2,5-di-tert-butylhydroquinone] | synergistic effect | – | – |
| O=C(O)CN(CCOCCOCCN(CC(=O)O)CC(=O)O)CC(=O)O [EGTA] | – | reduces synergistic signal down to levels in line with what is achieved by TLR ligand alone | inhibited |
| CN([C@@H](Cc1ccc(OS(=O)(=O)c2cccc3cnccc23)cc1)C(=O)N1CCN(c2ccccc2)CC1)S(=O)(=O)c1cccc2cnccc12 [KN-62] | – | does not alter reporter gene expression levels | – |
